The values below come from patent US20250122520A1, “Application of OBF1 Transcription Factor in Chromosome Doubling of Plant and Transgenic Plant Cultivation Method” (JIANGSU ACADEMY OF AGRICULTURAL SCIENCES, priority 2023, published 2025).

What all share (assay type): in vivo
One test deals with petunia. Description: Ploidy identification by flow cytometer of OBF1 over-expressing petunias screened with kanamycin. The conditions noted are these: for Proportion of chromosome doubling: OBF1 over-expression. On the procedure: (9) Two days later, the leaves were transferred to a regeneration culture medium with corresponding screening resistance, the culture medium was replaced every two to three weeks, and the leaves waited for differentiation.
(14) The ploidy of the plants was identified by a flow cytometer, a doubling ratio of the plants under different treatment concentrations of kanamycin was calculated, and the results are shown in Table 2 and FIGS. 10A-10C.
A general note: In flow cytometry, cells or beads pass a laser one at a time.

Another test relates to tobaccoes. Description: Ploidy identification by flow cytometer of OBF1 over-expressing tobaccoes screened with kanamycin. The conditions noted are these: tobacco; for Proportion of chromosome doubling: OBF1 over-expression. As to the method:
(5) The leaves were transferred to a screening culture medium with corresponding screening resistance; the culture medium was replaced every two to three weeks, and the leaves waited for differentiation.
(8) The ploidy of the plants was identified by a flow cytometer, the doubling ratio of the plants under different screening concentrations of kanamycin was calculated, and the results are shown in Table 6 and FIGS. 14A-14B.

The next test relates to tomatoes. Description: Ploidy identification by flow cytometer of OBF1 over-expressing tomatoes screened with kanamycin. The conditions noted are these: tomato; for Proportion of chromosome doubling: OBF1 over-expression. On the procedure: (5) The explants were transferred and placed into the screening culture medium; the photoperiod was 18/6 h, the temperature was 22-25° C., the humidity was 60%, and concentration settings of kanamycin and compositions of culture media were shown in Table 3;
(6) The ploidy of the plants was identified by a flow cytometer, the doubling ratio of the plants under different screening concentrations of kanamycin was calculated, and the results are shown in Table 4 and FIGS. 12A-12B.

In the case of `NC[C@H]1O[C@H](O[C@H]2[C@H](O)[C@@H](O[C@H]3O[C@H](CO)[C@@H](O)[C@H](N)[C@H]3O)[C@H](N)C[C@@H]2N)[C@H](O)[C@@H](O)[C@@H]1O` [kanamycin], the “Proportion of chromosome doubling” value worked out at 0% in the test with petunia (kanamycin 50 mg/L); 63.6% in the test on petunia (kanamycin 100 mg/L); 80% with petunia (kanamycin 150 mg/L); 0% in the test on tobaccoes (kanamycin 50 mg/mL); 33.3% with tobaccoes (kanamycin 100 mg/mL); 0% in the test with tomatoes (kanamycin 50 mg/mL). For the same compound, the “Proportion of chromosome doubling” value in the test on tomatoes (kanamycin 100 mg/mL) is recorded as 60%. Besides, the Chromosome-doubled plant in the test on petunia (kanamycin 50 mg/L, of 27 transgenic plants) is on record as 0 plant; in the test on petunia (kanamycin 100 mg/L, of 22 transgenic plants) it was 14 plant; in the test with petunia (kanamycin 150 mg/L, of 6 transgenic plants) it was 4 plant; in the test with tobaccoes (kanamycin 50 mg/mL, of 10 transgenic plants) it was 0 plant; in the test on tobaccoes (kanamycin 100 mg/mL, of 20 transgenic plants), 6 plant; in the test with tomatoes (kanamycin 50 mg/mL, of 30 transgenic plants), 0 plant. Moreover, the Chromosome-doubled plant with tomatoes (kanamycin 100 mg/mL, of 10 transgenic plants) was determined as 6 plant.
